Test results taken from US9650395B2, “Antibacterial compounds and methods for use” (PTC Therapeutics, Inc., priority 2011, dated 2017).
≈ marks a conversion by molar mass, not a printed value. Read-outs that look alike come from different tables or passages of the source.

How the values were obtained:
[1] = tested on: quinolone resistant E. coli LZ3111; assay: Antibacterial activity, MIC, quinolone resistant E. coli LZ3111; assay type: cell-based, Escherichia coli; details: Escherichia coli, read-out: MIC, LZ3111
Source text: The antibacterial activity from a microbroth dilution method may be presented as the minimum inhibitory concentration (MIC in […]). The MIC value is the lowest concentration of a drug which prevents macroscopically visible bacterial growth under test conditions.
Mutations in these regions are known to confer a high level resistance to the quinolone class of antibiotics.

[2] = tested on: Gram-positive Staphylococcus aureus (S. aureus) 29213; assay: Antibacterial activity, microbroth dilution MIC, S. aureus 29213; assay type: cell-based; details: Staphylococcus aureus; S. aureus 29213, microbroth dilution; read-out: MIC, 29213
[3] = tested on: super sensitive Gram-negative Escherichia coli (E. coli) BAS849; assay: Antibacterial activity, microbroth dilution MIC, E. coli BAS849; assay type: cell-based; details: Escherichia coli, read-out: MIC, BAS849
[4] = tested on: control Gram-negative E. coli 25922 strain; assay: Antibacterial activity, microbroth dilution MIC, E. coli 25922; assay type: cell-based, Escherichia coli; details: Escherichia coli; E. coli 25922, microbroth dilution; read-out: MIC, 25922
[5] = E. coli BAS849, microbroth dilution

SMILES	MIC [1]	MIC [2]	MIC [3, 5]	MIC [4]	MIC [3]
CCc1cc(C(=O)O)c(=O)[nH]c1-c1ccc(N2CCC(CNCc3ccc(F)cc3)C2)cc1 (stereo not shown) [Cpd 239, 5-ethyl-6-[4-(3-{[(4-fluorobenzyl)amino]methyl}pyrrolidin-1-yl)phenyl]-2-oxo-1,2-dihydropyridine-3-carboxylic acid]	12.5 to 150 µg/mL (≈ 27.8 to 334 µM)	12.5 to 150 µg/mL (≈ 27.8 to 334 µM)	< 1 µg/mL	< 1 µg/mL	
CCc1cc(C(=O)O)c(=O)[nH]c1-c1ccc(N2C[C@@H](N)[C@@H](OC)C2)cc1.Cl [Cpd 135, 6-{4-[(3R,4S)-3-amino-4-methoxypyrrolidin-1-yl]phenyl}-5-ethyl-2-oxo-1,2-dihydropyridine-3-carboxylic acid hydrochloride]	12.5 to 150 µg/mL	12.5 to 150 µg/mL	< 1 µg/mL	12.5 to 150 µg/mL	
CCc1cc(C(=O)O)c(=O)[nH]c1-c1ccc(N2CCC(CNC)C2)cc1.Cl (stereo not shown) [Cpd 184, 5-ethyl-6-(4-{3-[(methylamino)methyl]pyrrolidin-1-yl}phenyl)-2-oxo-1,2-dihydropyridine-3-carboxylic acid hydrochloride]	12.5 to 150 µg/mL	12.5 to 150 µg/mL	1 to 3.5 µg/mL	12.5 to 150 µg/mL	
CCc1c(-c2ccc(N3CCCCC3)cc2F)[nH]c(=O)c(C(=O)O)c1O [Cpd 44, 5-ethyl-6-[2-fluoro-4-(piperidin-1-yl)phenyl]-4-hydroxy-2-oxo-1,2-dihydropyridine-3-carboxylic acid]	12.5 to 150 µg/mL (≈ 34.7 to 416 µM)	1 to 3.5 µg/mL (≈ 2.77 to 9.71 µM)	1 to 3.5 µg/mL (≈ 2.77 to 9.71 µM)	12.5 to 150 µg/mL (≈ 34.7 to 416 µM)	
CCc1cc(C(=O)O)c(=O)[nH]c1-c1cc(CN2CCCC2)n(C)c1 [Cpd 348, 5-ethyl-6-(1-methyl-5-(pyrrolidin-1-ylmethyl)-1H-pyrrol-3-yl)-2-oxo-1,2-dihydropyridine-3-carboxylic acid]	12.5 to 150 µg/mL (≈ 37.9 to 455 µM)	12.5 to 150 µg/mL (≈ 37.9 to 455 µM)	3.5 to 12.5 µg/mL (≈ 10.6 to 37.9 µM)	12.5 to 150 µg/mL (≈ 37.9 to 455 µM)	
CCc1cc(C(=O)O)c(=O)[nH]c1-c1ccc(N2CCC(C)(O)C2)cc1 (stereo not shown) [Cpd 233, 5-ethyl-6-[4-(3-hydroxy-3-methylpyrrolidin-1-yl)phenyl]-2-oxo-1,2-dihydropyridine-3-carboxylic acid]	12.5 to 150 µg/mL (≈ 36.5 to 438 µM)	12.5 to 150 µg/mL (≈ 36.5 to 438 µM)	< 1 µg/mL	3.5 to 12.5 µg/mL (≈ 10.2 to 36.5 µM)	
CCc1cc(C(=O)O)c(=O)[nH]c1-c1ccc(N2CCC(C3(N)CCC3)C2)cc1.O=C(O)C(F)(F)F (stereo not shown) [Cpd 218, 6-{4-[3-(1-aminocyclobutyl)pyrrolidin-1-yl]phenyl}-5-ethyl-2-oxo-1,2-dihydropyridine-3-carboxylic acid trifluoroacetate]	12.5 to 150 µg/mL	12.5 to 150 µg/mL		3.5 to 12.5 µg/mL	1 to 3.5 µg/mL
CCc1cc(C(=O)O)c(=O)[nH]c1-c1ccc(N2CC3CC3(N)C2)cc1.Cl (stereo not shown) [Cpd 169, 6-[4-(1-amino-3-azabicyclo[3.1.0]hex-3-yl)phenyl]-5-ethyl-2-oxo-1,2-dihydropyridine-3-carboxylic acid hydrochloride]	12.5 to 150 µg/mL	12.5 to 150 µg/mL	< 1 µg/mL	1 to 3.5 µg/mL	
CCc1cc(C(=O)O)c(=O)[nH]c1-c1ccc(N2C[C@H]3CC[C@H](N=[N+]=[N-])[C@H]3C2)cc1.O=C(O)C(F)(F)F [Cpd 245, 6-{4-[(3aR,4S,6aS)-4-azidohexahydrocyclopenta[c]pyrrol-2(1H)-yl]phenyl}-5-ethyl-2-oxo-1,2-dihydropyridine-3-carboxylic acid trifluoroacetate]	12.5 to 150 µg/mL	3.5 to 12.5 µg/mL		3.5 to 12.5 µg/mL	< 1 µg/mL
CCc1cc(C(=O)O)c(=O)[nH]c1-c1ccc(N2C[C@H]3C[C@@H](NC)[C@H]3C2)cc1.Cl [Cpd 210, 5-ethyl-6-{4-[(1S,5R,6R)-6-(methylamino)-3-azabicyclo[3.2.0]hept-3-yl]phenyl}-2-oxo-1,2-dihydropyridine-3-carboxylic acid hydrochloride]	12.5 to 150 µg/mL	12.5 to 150 µg/mL	1 to 3.5 µg/mL	12.5 to 150 µg/mL	
CCc1cc(C(=O)O)c(=O)[nH]c1-c1ccc(N2CCC(n3ccnn3)C2)cc1 (stereo not shown) [Cpd 230, 5-ethyl-2-oxo-6-{4-[3-(1H-1,2,3-triazol-1-yl)pyrrolidin-1-yl]phenyl}-1,2-dihydropyridine-3-carboxylic acid]	12.5 to 150 µg/mL (≈ 32.9 to 395 µM)	3.5 to 12.5 µg/mL (≈ 9.22 to 32.9 µM)	< 1 µg/mL	1 to 3.5 µg/mL (≈ 2.64 to 9.22 µM)	
CCc1cc(C(=O)O)c(=O)[nH]c1-c1ccc(N2C[C@@H]3CCC[C@]3(C(=O)O)C2)cc1.O=C(O)C(F)(F)F [Cpd 220, (3aR,6aR)-2-[4-(5-carboxy-3-ethyl-6-oxo-1,6-dihydropyridin-2-yl)phenyl]hexahydrocyclopenta[c]pyrrole-3a(1H)-carboxylic acid trifluoroacetate]	12.5 to 150 µg/mL	12.5 to 150 µg/mL		12.5 to 150 µg/mL	3.5 to 12.5 µg/mL
CCc1c(-c2ccc(N3CCC4(CCNCC4)C3)cc2)[nH]c(=O)c(C(=O)O)c1O.Cl [Cpd 278, 6-[4-(2,8-diazaspiro[4.5]dec-2-yl)phenyl]-5-ethyl-4-hydroxy-2-oxo-1,2-dihydropyridine-3-carboxylic acid hydrochloride]	12.5 to 150 µg/mL	3.5 to 12.5 µg/mL	< 1 µg/mL	3.5 to 12.5 µg/mL	
CCc1cc(C(=O)O)c(=O)[nH]c1-c1ccc(N2C[C@H]3C[C@@H](N)[C@H]3C2)cc1 [Cpd 211, 6-{4-[(1S,5R,6R)-6-amino-3-azabicyclo[3.2.0]hept-3-yl]phenyl}-5-ethyl-2-oxo-1,2-dihydropyridine-3-carboxylic acid]	12.5 to 150 µg/mL (≈ 35.4 to 424 µM)	12.5 to 150 µg/mL (≈ 35.4 to 424 µM)	< 1 µg/mL	3.5 to 12.5 µg/mL (≈ 9.9 to 35.4 µM)	
CCc1c(-c2ccc(N3C[C@H]4C[C@@H](N)C[C@H]4C3)cc2)[nH]c(=O)c(C(=O)O)c1O [Cpd 248, 6-{4-[(3aR,5r,6aS)-5-aminohexahydrocyclopenta[c]pyrrol-2(1H)-yl]phenyl}-5-ethyl-4-hydroxy-2-oxo-1,2-dihydropyridine-3-carboxylic acid]	12.5 to 150 µg/mL (≈ 32.6 to 391 µM)	12.5 to 150 µg/mL (≈ 32.6 to 391 µM)	1 to 3.5 µg/mL (≈ 2.61 to 9.13 µM)	12.5 to 150 µg/mL (≈ 32.6 to 391 µM)	
CCc1cc(C(=O)O)c(=O)[nH]c1-c1ccc(CN2CCCCC2)n1C [Cpd 352, 5-ethyl-6-(1-methyl-5-(piperidin-1-ylmethyl)-1H-pyrrol-2-yl)-2-oxo-1,2-dihydropyridine-3-carboxylic acid]	12.5 to 150 µg/mL (≈ 36.4 to 437 µM)	12.5 to 150 µg/mL (≈ 36.4 to 437 µM)	12.5 to 150 µg/mL (≈ 36.4 to 437 µM)	12.5 to 150 µg/mL (≈ 36.4 to 437 µM)	
CCc1cc(C(=O)O)c(=O)[nH]c1-c1ccc(N2C[C@H]3C[C@H](N)[C@H]3C2)cc1.Cl [Cpd 212, 6-{4-[(1S,5R,6S)-6-amino-3-azabicyclo[3.2.0]hept-3-yl]phenyl}-5-ethyl-2-oxo-1,2-dihydropyridine-3-carboxylic acid hydrochloride]	12.5 to 150 µg/mL	12.5 to 150 µg/mL	< 1 µg/mL	3.5 to 12.5 µg/mL	
CCc1cc(C(=O)O)c(=O)[nH]c1-c1ccc(N2CCCC2)cc1OC [Cpd 50, 5-ethyl-6-[2-methoxy-4-(pyrrolidin-1-yl)phenyl]-2-oxo-1,2-dihydropyridine-3-carboxylic acid]	12.5 to 150 µg/mL (≈ 36.5 to 438 µM)	12.5 to 150 µg/mL (≈ 36.5 to 438 µM)	12.5 to 150 µg/mL (≈ 36.5 to 438 µM)	12.5 to 150 µg/mL (≈ 36.5 to 438 µM)	
CCc1c(-c2ccc(N3CCC(N(Cc4ccccc4)Cc4ccccc4)CC3)cc2)[nH]c(=O)c(C(=O)O)c1O [Cpd 283, 6-{4-[4-(dibenzylamino)piperidin-1-yl]phenyl}-5-ethyl-4-hydroxy-2-oxo-1,2-dihydropyridine-3-carboxylic acid]	12.5 to 150 µg/mL (≈ 23.2 to 279 µM)	12.5 to 150 µg/mL (≈ 23.2 to 279 µM)	3.5 to 12.5 µg/mL (≈ 6.51 to 23.2 µM)	12.5 to 150 µg/mL (≈ 23.2 to 279 µM)	
CCc1cc(C(=O)O)c(=O)[nH]c1-c1ccc(N2C[C@H]3CC[C@H](N)[C@H]3C2)cc1.O=C(O)C(F)(F)F [Cpd 204, 6-{4-[(3aR,4S,6aS)-4-aminohexahydrocyclopenta[c]pyrrol-2(1H)-yl]phenyl}-5-ethyl-2-oxo-1,2-dihydropyridine-3-carboxylic acid trifluoroacetate]	12.5 to 150 µg/mL	12.5 to 150 µg/mL		12.5 to 150 µg/mL	1 to 3.5 µg/mL
CCc1cc(C(=O)O)c(=O)[nH]c1-c1ccc(CN(C)C)n1C [Cpd 351, 6-(5-((dimethylamino)methyl)-1-methyl-1H-pyrrol-2-yl)-5-ethyl-2-oxo-1,2-dihydropyridine-3-carboxylic acid]	12.5 to 150 µg/mL (≈ 41.2 to 494 µM)	12.5 to 150 µg/mL (≈ 41.2 to 494 µM)	12.5 to 150 µg/mL (≈ 41.2 to 494 µM)	12.5 to 150 µg/mL (≈ 41.2 to 494 µM)	
CCc1c(-c2ccc(N3CCC(O)CC3)cc2)[nH]c(=O)c(C(=O)O)c1O [Cpd 280, 5-ethyl-4-hydroxy-6-[4-(4-hydroxypiperidin-1-yl)phenyl]-2-oxo-1,2-dihydropyridine-3-carboxylic acid]	12.5 to 150 µg/mL (≈ 34.9 to 419 µM)	12.5 to 150 µg/mL (≈ 34.9 to 419 µM)	< 1 µg/mL	12.5 to 150 µg/mL (≈ 34.9 to 419 µM)	
CCc1c(-c2ccc(N3CCC(n4ccnn4)C3)cc2)[nH]c(=O)c(C(=O)O)c1O (stereo not shown) [Cpd 287, 5-ethyl-4-hydroxy-2-oxo-6-{4-[3-(1H-1,2,3-triazol-1-yl)pyrrolidin-1-yl]phenyl}-1,2-dihydropyridine-3-carboxylic acid]	12.5 to 150 µg/mL (≈ 31.6 to 379 µM)	3.5 to 12.5 µg/mL (≈ 8.85 to 31.6 µM)	< 1 µg/mL	1 to 3.5 µg/mL (≈ 2.53 to 8.85 µM)	
CCc1cc(C(=O)O)c(=O)[nH]c1-c1ccc(N2CCC(N(C)C)C2)cc1F (stereo not shown) [Cpd 221, 6-{4-[3-(dimethylamino)pyrrolidin-1-yl]-2-fluorophenyl}-5-ethyl-2-oxo-1,2-dihydropyridine-3-carboxylic acid]	12.5 to 150 µg/mL (≈ 33.5 to 402 µM)	12.5 to 150 µg/mL (≈ 33.5 to 402 µM)	1 to 3.5 µg/mL (≈ 2.68 to 9.37 µM)	3.5 to 12.5 µg/mL (≈ 9.37 to 33.5 µM)	
CCc1cc(C(=O)O)c(=O)[nH]c1-c1ccc(N2CCC(O)CC2)cc1 [Cpd 222, 5-ethyl-6-[4-(4-hydroxypiperidin-1-yl)phenyl]-2-oxo-1,2-dihydropyridine-3-carboxylic acid]	12.5 to 150 µg/mL (≈ 36.5 to 438 µM)	12.5 to 150 µg/mL (≈ 36.5 to 438 µM)	1 to 3.5 µg/mL (≈ 2.92 to 10.2 µM)	12.5 to 150 µg/mL (≈ 36.5 to 438 µM)	
